Measured values: patent US20080241258A1, “TREATMENT OF DISEASES WITH NANOPARTICLES HAVING A SIZE-DEPENDENT CYTOTOXICITY” (priority 2007, published 2008)

Tests used:
[1] = Stability (aggregation) of Au compounds in serum containing cell culture media, scored from microscopic pictures; format: physicochemical; design: key: Material aggregation was scored positive (+); negative (−); conditions: for Aggregation at 12 hours: sign after slash; for Aggregation at 5 minutes: sign in front of slash
Text: Next applicant tested the stability of the materials in the serum containing cell culture media formulated for proper growth of the cell lines used in this study. Applicant reasoned that the medium composition might affect particle aggregation and that aggregation of materials would greatly influence the endocytic pathway and ultimately the cellular trajectories of materials precluding or favoring intracellular targets. Macroscopic and microscopic aspects of medium-material combinations in the absence of any cells were studied by applicant.
Materials were grouped according to their stability in specific media and over time.
Material stability was assayed in DMEM high glucose (H). DMEM low glucose (L) and RPMI 1640 including 10% fetal calf serum. Material aggregation was scored positive (+) or negative (−) from microscopic pictures taken after 5 minutes (sign in from of slash) and 12 hours incubation (sign after slash).

[2] = test system: HeLa cervix carcinoma epithelial cells; test: MTT cytotoxicity assay, logarithmic growth phase; format: cell-based; conditions: FIG. 3A, at ˜10 μM ligand
Text: Applicant quantified the toxicity of Au compounds in four cell lines determining the inhibitory concentrations that effected 50% growth inhibition (IC50) in MTT assays. Applicant reasoned that actively growing and dividing cells during logarithmic growth should be more vulnerable to toxic insults than cells in near or at the stationary phase of cell culture. Thus, applicant determined growth curves for all cell lines to estimate the logarithmic and stationary growth phases in relation to the number of cells seeded into each well of a 96-well cell culture plate. […] This graph serves as a reference to estimate whether cells were in the logarithmic or in the stationary phase of cell culture at the start of any given experiment. […] The bottom panel depicts the protocol of cytotoxicity testing starting during the logarithmic (left bottom panel) or the stationary growth phase (right bottom panel).
Having established growth characteristics for the reporter cell lines applicant treated the cells with Au compounds for up to 48 hours to observe the full effect of toxicity. […]
FIG. 3 A): HeLa cells were plated at 2000 cells/well and grown for 3 days into the logarithmic growth phase. […] Shown are the logarithmic curve fits of tabulated MTT readings. […] All concentrations relate to the amount of gold [Au] detected by AAS in the authentic samples after performing the cytotoxicity test. […]

[3] = test system: HeLa, SK-MeI-28, L929 and J774A1 cells; test: MTT cytotoxicity assay in four cell lines
Text: Applicant tested the cytotoxicity of these particles in four cell lines representing major functional cell types with barrier and phagocyte function.
Applicant added Au compounds to HeLa cervix carcinoma epithelial cells (HeLa), SK-MeI-28 melanoma cells (SK-MeI-28), L929 mouse fibroblasts (L929) and J774A.1 mouse monocytic/macrophage cells (J774A1) and first studied their response by light and electron microscopy.
Applicant quantified the toxicity of Au compounds in four cell lines determining the inhibitory concentrations that effected 50% growth inhibition (IC50) in MTT assays. […] Thus, applicant determined growth curves for all cell lines to estimate the logarithmic and stationary growth phases in relation to the number of cells seeded into each well of a 96-well cell culture plate.
Having established growth characteristics for the reporter cell lines applicant treated the cells with Au compounds for up to 48 hours to observe the full effect of toxicity. […] Applicant performed toxicity tests both during the logarithmic and the stationary phase of cell growth following the time course depicted in FIG. 2, lower panels.
FIG. 3 A): HeLa cells were plated at 2000 cells/well and grown for 3 days into the logarithmic growth phase. […] All concentrations relate to the amount of gold [Au] detected by AAS in the authentic samples after performing the cytotoxicity test. […]

[4] = DMEM high glucose (H) including 10% fetal calf serum
[5] = DMEM low glucose (L) including 10% fetal calf serum
[6] = RPMI 1640 including 10% fetal calf serum

Molecule	Aggregation at 12 hours [1, 4]	Aggregation at 5 minutes [1, 4]	Aggregation at 12 hours [1, 5]	Aggregation at 5 minutes [1, 5]	Aggregation at 12 hours [1, 6]	Aggregation at 5 minutes [1, 6]	ligand toxicity [2]	non-toxic at up to x fold higher concentration (than 1.4 nm nanoclusters) ([3]; four cell lines)	IC50 ([3]; read-out: cytotoxicity: non-toxic at concentrations up to, all cells tested)
[Au+3].[Cl-].[Cl-].[Cl-].[Cl-].[H+] [HAuCl4]	−/−	−/−	−/−	−/−	−/−	−/−			
[Cl][Au-]([Cl])([Cl])[Cl].[Na+] [NaAuCl4]	−/−	−/−	−/−	−/−	−/−	−/−			
O=S(=O)([O-])c1cccc(P(c2ccccc2)c2ccccc2)c1.[Na+] [TPPMS, triphenylphosphine monosulfonate]	−/−	−/−	−/−	−/−	−/−	−/−	non-toxic		
O=S(=O)([O-])c1cccc(P(c2cccc(S(=O)(=O)[O-])c2)c2cccc(S(=O)(=O)[O-])c2)c1.[Na+].[Na+].[Na+] [TPPTS, triphenylphosphine trisulfonate]	−/−	−/−	−/−	−/−	−/−	−/−	non-toxic		
gold thiomalate [Tauredon]	+/+	+/+	+/+	+/+	+	−		up to 1000 fold	> 10 mM
